Results taken from US6423689B1, “Peptidyl calcium channel blockers” (Warner-Lambert Company, priority 1997, dated 2002).
pIC50: −log10 of the molar value.

How the values were obtained:
[1] = molecular target: T1, N-type Ca2+ channels in IMR-32 cells (Homo sapiens, UniProt Q00975); test: Inhibition of N-type calcium flux in IMR-32 cells (Indo-1 fluorescence, nitrendipine present); format: cell-based; conditions: for inhibition at 1 µM / inhibition at 10 µM: IMR-32; for pIC50: IMR-32 cells, 5 μM nitrendipine, K+ depolarization
T1 construct: host or cells: IMR-32 cells, differentiated with dibutyryl cAMP and bromodeoxyuridine
T1 sequence (Q00975 whole entry): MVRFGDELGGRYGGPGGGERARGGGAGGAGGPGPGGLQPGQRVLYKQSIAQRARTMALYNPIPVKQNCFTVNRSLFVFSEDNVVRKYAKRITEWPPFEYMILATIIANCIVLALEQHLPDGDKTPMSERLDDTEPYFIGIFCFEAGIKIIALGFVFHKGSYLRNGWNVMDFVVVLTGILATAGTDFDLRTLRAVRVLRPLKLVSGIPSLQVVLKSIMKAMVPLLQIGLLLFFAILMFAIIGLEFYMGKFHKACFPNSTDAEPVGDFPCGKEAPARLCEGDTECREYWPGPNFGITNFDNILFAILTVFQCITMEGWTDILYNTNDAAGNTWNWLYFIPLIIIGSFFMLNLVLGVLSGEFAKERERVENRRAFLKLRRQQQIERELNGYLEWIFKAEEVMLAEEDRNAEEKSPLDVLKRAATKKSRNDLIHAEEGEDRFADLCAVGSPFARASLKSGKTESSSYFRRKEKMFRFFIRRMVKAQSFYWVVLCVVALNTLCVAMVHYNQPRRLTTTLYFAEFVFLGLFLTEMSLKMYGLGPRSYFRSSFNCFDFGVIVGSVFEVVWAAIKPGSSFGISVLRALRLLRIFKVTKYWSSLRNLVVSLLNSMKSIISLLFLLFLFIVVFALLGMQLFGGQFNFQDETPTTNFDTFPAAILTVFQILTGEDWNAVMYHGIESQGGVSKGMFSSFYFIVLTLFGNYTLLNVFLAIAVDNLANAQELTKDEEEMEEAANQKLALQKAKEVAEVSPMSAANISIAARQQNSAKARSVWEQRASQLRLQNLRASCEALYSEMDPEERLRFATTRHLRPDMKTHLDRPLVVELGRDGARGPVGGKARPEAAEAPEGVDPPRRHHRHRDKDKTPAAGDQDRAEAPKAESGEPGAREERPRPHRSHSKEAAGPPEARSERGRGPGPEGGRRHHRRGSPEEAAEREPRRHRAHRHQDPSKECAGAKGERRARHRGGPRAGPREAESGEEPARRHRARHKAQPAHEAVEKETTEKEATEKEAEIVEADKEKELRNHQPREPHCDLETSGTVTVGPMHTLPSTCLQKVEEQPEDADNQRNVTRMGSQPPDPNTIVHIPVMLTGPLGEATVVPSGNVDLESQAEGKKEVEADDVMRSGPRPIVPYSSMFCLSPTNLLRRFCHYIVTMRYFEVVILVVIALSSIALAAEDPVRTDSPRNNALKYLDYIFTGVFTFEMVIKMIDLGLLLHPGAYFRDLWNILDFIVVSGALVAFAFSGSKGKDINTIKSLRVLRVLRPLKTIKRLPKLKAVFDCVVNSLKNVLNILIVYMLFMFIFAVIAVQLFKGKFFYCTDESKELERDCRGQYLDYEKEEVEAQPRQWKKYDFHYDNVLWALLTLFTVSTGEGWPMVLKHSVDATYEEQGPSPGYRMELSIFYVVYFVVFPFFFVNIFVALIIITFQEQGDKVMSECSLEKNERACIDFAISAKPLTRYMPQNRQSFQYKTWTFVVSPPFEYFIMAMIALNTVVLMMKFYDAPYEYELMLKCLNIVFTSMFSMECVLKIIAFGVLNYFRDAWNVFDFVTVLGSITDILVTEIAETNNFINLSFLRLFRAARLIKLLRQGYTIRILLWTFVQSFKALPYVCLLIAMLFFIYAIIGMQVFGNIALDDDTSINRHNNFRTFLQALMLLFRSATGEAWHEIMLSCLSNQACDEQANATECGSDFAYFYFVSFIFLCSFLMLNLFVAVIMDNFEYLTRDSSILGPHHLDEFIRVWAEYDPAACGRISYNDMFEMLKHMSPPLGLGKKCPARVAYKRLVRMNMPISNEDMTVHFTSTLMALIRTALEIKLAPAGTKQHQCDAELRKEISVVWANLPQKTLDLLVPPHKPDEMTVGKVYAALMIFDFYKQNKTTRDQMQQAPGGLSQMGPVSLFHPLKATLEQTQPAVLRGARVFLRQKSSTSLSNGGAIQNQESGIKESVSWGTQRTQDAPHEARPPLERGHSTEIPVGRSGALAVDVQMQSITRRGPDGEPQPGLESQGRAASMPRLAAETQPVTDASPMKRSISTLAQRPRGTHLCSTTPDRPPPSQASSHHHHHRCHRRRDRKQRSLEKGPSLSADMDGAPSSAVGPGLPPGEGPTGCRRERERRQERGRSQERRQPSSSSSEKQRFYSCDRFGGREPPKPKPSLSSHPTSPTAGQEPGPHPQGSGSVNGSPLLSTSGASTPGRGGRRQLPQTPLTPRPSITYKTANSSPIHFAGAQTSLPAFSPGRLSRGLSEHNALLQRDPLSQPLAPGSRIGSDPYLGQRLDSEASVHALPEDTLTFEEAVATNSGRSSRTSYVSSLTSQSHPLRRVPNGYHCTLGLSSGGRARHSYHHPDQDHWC
T1 sequence (P54289 25-956 partner limits assumed): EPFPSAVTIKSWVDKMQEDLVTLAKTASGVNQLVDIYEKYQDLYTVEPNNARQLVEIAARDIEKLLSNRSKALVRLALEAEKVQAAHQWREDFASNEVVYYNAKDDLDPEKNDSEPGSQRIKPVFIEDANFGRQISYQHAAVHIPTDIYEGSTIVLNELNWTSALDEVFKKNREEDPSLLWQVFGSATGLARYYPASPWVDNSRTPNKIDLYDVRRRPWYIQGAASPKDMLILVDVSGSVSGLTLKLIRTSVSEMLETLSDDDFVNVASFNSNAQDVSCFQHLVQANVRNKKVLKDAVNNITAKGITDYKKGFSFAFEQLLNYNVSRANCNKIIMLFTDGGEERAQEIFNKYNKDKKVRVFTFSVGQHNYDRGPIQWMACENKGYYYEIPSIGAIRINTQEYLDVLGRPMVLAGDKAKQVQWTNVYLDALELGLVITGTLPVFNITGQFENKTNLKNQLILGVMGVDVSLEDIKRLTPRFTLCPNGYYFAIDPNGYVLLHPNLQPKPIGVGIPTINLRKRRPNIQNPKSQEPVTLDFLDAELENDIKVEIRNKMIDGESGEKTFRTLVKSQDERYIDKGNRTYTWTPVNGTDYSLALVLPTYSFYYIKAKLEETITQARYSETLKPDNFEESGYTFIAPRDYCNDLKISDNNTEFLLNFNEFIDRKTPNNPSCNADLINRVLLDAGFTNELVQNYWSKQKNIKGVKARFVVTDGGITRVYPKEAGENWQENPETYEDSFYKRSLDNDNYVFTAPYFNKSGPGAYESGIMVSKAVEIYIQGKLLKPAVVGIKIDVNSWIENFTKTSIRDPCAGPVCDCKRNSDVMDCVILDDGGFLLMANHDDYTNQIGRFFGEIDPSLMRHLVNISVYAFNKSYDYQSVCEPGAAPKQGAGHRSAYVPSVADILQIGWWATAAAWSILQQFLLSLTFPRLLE
T1 sequence (P54289 957-1103 partner limits assumed): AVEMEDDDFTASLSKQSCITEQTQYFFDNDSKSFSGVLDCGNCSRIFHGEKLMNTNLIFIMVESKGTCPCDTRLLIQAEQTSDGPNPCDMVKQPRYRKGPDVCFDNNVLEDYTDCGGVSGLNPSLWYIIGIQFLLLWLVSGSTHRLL
T1 sequence (P54284 whole entry partner): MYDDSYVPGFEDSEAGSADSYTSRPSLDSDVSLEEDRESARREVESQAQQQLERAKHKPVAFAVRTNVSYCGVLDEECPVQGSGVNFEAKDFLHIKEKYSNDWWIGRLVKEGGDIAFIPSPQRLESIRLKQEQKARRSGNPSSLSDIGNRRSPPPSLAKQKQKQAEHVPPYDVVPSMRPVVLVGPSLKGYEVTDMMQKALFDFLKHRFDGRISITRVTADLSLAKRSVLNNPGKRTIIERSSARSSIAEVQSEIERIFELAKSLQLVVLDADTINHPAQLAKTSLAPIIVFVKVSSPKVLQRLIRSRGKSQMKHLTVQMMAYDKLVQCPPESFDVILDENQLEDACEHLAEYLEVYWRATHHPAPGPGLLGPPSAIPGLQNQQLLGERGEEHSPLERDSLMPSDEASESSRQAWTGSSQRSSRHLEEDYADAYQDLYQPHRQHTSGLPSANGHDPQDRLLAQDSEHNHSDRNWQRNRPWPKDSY
How it was run: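 With L-type flux blocked by 5 μM nitrendipine, N-type Ca2+ entry was read as the Indo-1 emission ratio (400/490 nm, excitation 350 nm) at 30° C after KCl depolarization.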

[2] = system: L-type Ca2+ channels in GH3 cells; test: Inhibition of L-type calcium flux in GH3 cells (Indo-1 fluorescence); format: cell-based, rat
Experimental: Measurement of L-type Ca^2+ Channel Blocking Potencies of Compounds in GH3 Cells Using the Fluorescent Ca^2+ Indicator Indo-1
The GH3 rat pituitary cell line was obtained from the American Type Culture Collection (Rockville, Md.). Cells were grown in Ham's F-10 medium with 15% horse serum, 2.5% fetal bovine serum (FBS), and […] (Gibco, Gaithersburg, Md.). Confluent cells were detached using 0.5 mM EDTA and loaded with 5 μM Indo-acetoxymethyl ester (Molecular Probes, Eugene, Oreg.) in 1% bovine serum albumin (BSA) containing assay buffer (10 mM HEPES/Tris pH 7.4 in Hank's Balanced Salt Solution without bicarbonate or phenol red) for 60 minutes at 30° C. Loaded cells were washed twice, resuspended (approx. 10^7 cells/mL) in assay buffer containing 0.5% BSA, and kept on ice until use (<3 hrs). Different concentrations of the test compounds (60 μL in dimethyl sulfoxide) or controls were added to 5.94 mL of assay buffer containing approximately 3×10^6 loaded cells, and the samples were incubated for 10 minutes at 30° C. After incubation, samples were aliquoted into 3 cuvettes, and their fluorescence was measured with a Photon Technology International (PTI, South Brunswick, N.J.) Model RF-F3004 spectrofluorometer thermostatted at 30° C. Excitation was set at 350 nm and dual emissions were recorded at 400 and 490 nm. Basal emission signals were acquired for 20 seconds, followed by the depolarization of cells by the addition of 200 μL of a stimulation solution (1 M KCl, 68 mM CaCl2) to the stirred cuvette. Emission signals were acquired for an additional 50 seconds after depolarization. Ratio of emission signals (F400 nm/F490 nm), which is proportional to intracellular Ca^2+ concentration, was plotted against time, and the difference between the emission ratio 50 seconds after stimulation and its basal value (before stimulation) was determined. Values obtained in this way were considered as measures of depolarization-induced Ca-flux through L-type channels and plotted as a function of drug concentration. IC50 values of test compounds were calculated by fitting a four-parameter logistic function to the data using the least squares method.

[3] = molecular target: T2, N-type Ca2+ channels in superior cervical ganglion (SCG) neurons (Rattus norvegicus, UniProt Q02294); test: Whole-cell voltage clamp, N-type Ca2+ current in SCG neurons; format: cell-based
T2 construct: from tissue
How it was run: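 Whole-cell voltage clamp of acutely trypsin-dissociated rat SCG neurons, with TEA/choline external solution (2 mM Ca2+) and Cs-methanesulfonate pipette solution. Currents evoked by 150 ms steps to +20 mV from −65 to −55 mV holding, every 40 s; compounds applied locally, effect as % inhibition of control amplitude.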

[4] = system: K+ channels in superior cervical ganglion (SCG) neurons; test: Whole-cell voltage clamp, K+ current in SCG neurons; format: cell-based, rat; conditions: 10 μM
How it was run: (§1)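 Percent inhibition of control amplitude at steady-state block is the read-out: peak inward Na+ current at 0 mV, sustained K+ current at +50 mV, 35 msec steps every 10 sec from −65 to −55 mV. Recordings used whole-cell clamp of trypsin-dissociated SCG neurons, pH 7.4 external and pipette solutions, compounds applied by local perfusion.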

[5] = system: Na+ channels in superior cervical ganglion (SCG) neurons; test: Whole-cell voltage clamp, Na+ current in SCG neurons; format: cell-based, rat; conditions: 10 μM
How it was run: as §1

Compound	inhibition at 1 µM [1] [%]	inhibition at 10 µM [1] [%]	pIC50 [1]	pIC50 [2]	melting point [°C]	inhibition at 10 µM ([3]; 10 μM) [%]	pIC50 ([3]; read-out: Inhibition of N-type Ca2+ Current IC50)	Inhibition of K+ Current, % Inhibition at 10 μM [4] [%]	Inhibition of Na+ Current, % Inhibition at 10 μM [5] [%]
CC(C)(C)OC(=O)[C@@H](Cc1ccc(OCc2ccccc2)cc1)NC(=O)[C@H](Cc1c[nH]c2ccccc12)NC(=O)N1CCCCCC1 [Example 17, 2(R)-[2(S)-[(Azepane-1-carbonyl)-amino]-3-(1H-indol-3-yl)-propionylamino]-3-(4-benzyloxy-phenyl)-propionic acid tert-butyl ester]	41	85	5.73	5.24					
CC(C)(C)OC(=O)[C@@H](Cc1ccc(OCc2ccccc2)cc1)NC(=O)[C@H](Cc1ccccc1)NC(=O)N1CCCCCC1 [Example 18, 2(R)-{2(S)-[(Azepane-1-carbonyl)-amino]-3-phenyl-propionylamino}-3-(4-benzyloxy-phenyl)-propionic acid tert-butyl ester]	50	97	6.03	5.46					
CC(C)(C)OC(=O)[C@H](Cc1ccc(OCc2ccccc2)cc1)NC(=O)[C@H](Cc1c[nH]c2ccccc12)NC(=O)N1CCCCCC1 [Example 20, [S-(R*,R*)]-2-[2-[(Azepane-1-carbonyl)-amino]-3-(1H-indol-3-yl)-propionylamino]-3-(4-benzyloxy-phenyl)-propionic acid tert-butyl ester]	52	90	6.04	5.34					

These reach a higher pIC50 [1]. Values come first.

inhibition at 1 µM [1] [%]	inhibition at 10 µM [1] [%]	pIC50 [1]	pIC50 [2]	melting point [°C]	inhibition at 10 µM ([3]; 10 μM) [%]	pIC50 ([3]; read-out: Inhibition of N-type Ca2+ Current IC50)	Compound	Inhibition of K+ Current, % Inhibition at 10 μM [4] [%]	Inhibition of Na+ Current, % Inhibition at 10 μM [5] [%]
68	91	6.30	5.37	87 to 90			Cc1ccc(COc2ccc(C[C@H](NC(=O)[C@H](Cc3ccccc3)NC(=O)N3CCCCCC3)C(=O)OC(C)(C)C)cc2)cc1 [Example 19, [S-(R*,R*)]-2-{2-[(Azepane-1-carbonyl)-amino]-3-phenyl-propionylamino}-3-[4-(4-methyl-benzyloxy)-phenyl]-propionic acid tert-butyl ester]		
55	95	6.24	4.74		78	5.49	CC(C)C[C@H](NC(=O)N1CCCCCC1)C(=O)N[C@@H](Cc1ccc(OCc2ccccc2)cc1)C(=O)NC(C)(C)C [Example 23, [S-(R*,R*)]-Azepane-1-carboxylic acid {1-[2-(4-benzyloxy-phenyl)-1-tert-butylcarbamoyl-ethylcarbamoyl]-3-methyl-butyl}-amide]	61	30
